Reference: patent US12436156B2, “Methods of determining pH and calcium or chloride concentration in samples” (The University of Chicago, priority 2018, dated 2025)
Counter-ions that a name gives are not always drawn.

Assays:
Assay type in all cases: cell-based, human
lysosomes in HDF cells [1] = experiment: 2-IM upon addition of lysosomal proton pump and ion channel blocker; conditions: ChloropHoreLy labelled, 500 nM bafilomycin A1 or 300 μM NPPB, 45 min
Protocol: Lysosomal pH and chloride measurements. Fibroblast cells are pulsed with 2 μM of I^mLy, ChloropHore or ChloropHoreLy for 1 h, chased for 9 h (30 min pulse and 1 h chase for J774. A1, BHK-21 and T47D cells) and then washed with 1×PBS and subjected for imaging.
2-IM upon addition of lysosomal proton pump and ion channel blocker. Upon lysosome labeling, final concentration of 500 nM bafilomycinA1 and 300 μM of 5-nitro-2-(3-phenylpropyl-amino) benzoic acid (NPPB) were added to cells and incubated for 45 min. Cells was then washed with PBS and imaged in Hank's Balanced Salt Solution (HBSS) containing the respective blocker compounds.
(§1) Image analysis for pH and sensors. Images were analyzed with ImageJ/Fiji 2.0.0-rc-54/1.51h. pH and chloride measurements are performed as described previously. To generate a density plot to represent lysosomal populations, the individual D/A (Y-axis) versus the corresponding R/G (X-axis) values was first plotted for each lysosome that was obtained for a given fibroblast sample comprising ˜60 cells and ˜600 lysosomes. Density plots were generated using 2D Kernel Density plot on Origin 2018 SR1 b9.5.1.195 (OriginLab, USA). […] To normalize between experiments done on different days, the lysosomal pH and Cl− of a sample of normal HDF cells was always measured as well, the density plot of which served as the reference. […]

lysosomes in HDF cells [2] = experiment: 2-IM in pharmacologically induced cell culture models for NP-A/B and NP-C; conditions: HDF cells from a healthy individual; 65 μM AH or 20 μM U18666A, 24 h
Protocol: Niemann Pick type A/B and C models were prepared according to the previous reported method. Cells were incubated with 65 μM of the acid sphingomyelinase (ASM) inhibitor amitriptyline (AH) and 20 μM of the NPC1 inhibitor U18666A for 24 h to create a NP-A/B and NP-C models respectively. The cells are pulsed with 2 μM of ChloropHoreLY and either 65 μM AH or 20 μM U18666A for 1 h, chased with either 65 μM AH or 20 μM U18666A for 9 h and then washed with 1×PBS and imaged.
Image analysis for pH and sensors. Images were analyzed with ImageJ/Fiji 2.0.0-rc-54/1.51h. pH and chloride measurements are performed as described previously. To generate a density plot to represent lysosomal populations, the individual D/A (Y-axis) versus the corresponding R/G (X-axis) values was first plotted for each lysosome that was obtained for a given fibroblast sample comprising ˜60 cells and ˜600 lysosomes. Density plots were generated using 2D Kernel Density plot on Origin 2018 SR1 b9.5.1.195 (OriginLab, USA). This converted the individual scatter points into a population matrix as a probability density function. The density plot is then pseudo colored to represent high density in red (values close to 1) and low density in blue (values closer to 0). Those points with <10% probability on the plot were discarded. For normalization between days, the point of highest density (value =1) of normal HDF cells was designated as the center of the plot with x,y coordinates (1,1). To normalize between experiments done on different days, the lysosomal pH and Cl− of a sample of normal HDF cells was always measured as well, the density plot of which served as the reference. All density plots acquired on the same day with the same settings were thus normalized to the HDF cell density plots to enable comparison of data across different days.

[3] = tested on: lysosomes of NP-C patient fibroblasts; experiment: Lysosomal population rescue using β-CD in NP-C patient fibroblasts (2-IM); conditions: NP-C patient samples mutated in NPC1 or NPC2, 50 μM, 24 h
Protocol: (§2) Lysosomal population rescue using ASM and β-CD. Recombinant human acid sphingomyelinase was incubated with NP-A/B patient cells according to the previous method. Primary human fibroblasts derived from NP-A/B patients were maintained in DMEM medium with 1% FBS for 24 h. The medium was then changed to DMEM with 1% FBS containing 0.2% BSA and 5 μg of rhASM. After 24 h, the cells are pulsed with 2 μM of ChloropHoreLy for 1 h, chased for 9 h and then washed with 1×PBS and imaged. Primary human fibroblasts from NP-C patient were incubated with 50 μM of o-Hydroxypropyl-β-cyclodextrin (β-CD) for 24 h. The cells are pulsed with 2 μM of ChloropHoreLy and 50 μM of β-CD for 1 h, chased with 50 μM of β-CD for 9 h and then washed with 1×PBS and imaged.
as §1, with “lysosomes.” for “lysosomes. Density plots were generated using 2D Kernel Density plot on Origin 2018 SR1 b9.5.1.195 (OriginLab, USA).”

[4] = tested on: lysosomes of NP-A and NP-B patient fibroblasts; experiment: Lysosomal population rescue using ASM in NP-A/B patient fibroblasts (2-IM); conditions: 5 μg rhASM, 24 h
Protocol: as §2
as §1, with “lysosomes.” for “lysosomes. Density plots were generated using 2D Kernel Density plot on Origin 2018 SR1 b9.5.1.195 (OriginLab, USA).”

## O=C(O)c1cc([N+](=O)[O-])ccc1NCCCc1ccccc1 [5-nitro-2-(3-phenylpropylamino) benzoic acid]
Lysosomes in HDF cells [1]
  high Cl-, high acidity lysosome population (2-IM profile): lost

## CN(C)CCC=C1c2ccccc2CCc2ccccc21 [amitriptyline hydrochloride]
Lysosomes in HDF cells [2]
  high chloride, high acidity lysosome population (2-IM profile): depletion
  lysosome population in 2-IM profile: monodisperse

## CCN(CC)CCO[C@H]1CC[C@@]2(C)C(=CC[C@@H]3[C@@H]2CC[C@]2(C)C(=O)CC[C@@H]32)C1 [U18666A]
Lysosomes in HDF cells [2]
  high chloride, high acidity lysosome population (2-IM profile): depletion
  lysosome population in 2-IM profile: monodisperse

## o-2-hydroxypropyl-β-cyclodextrin [RCD]
[3]
  lysosomes with higher lumenal Cl- and H+ content (2-IM profile): appearance
  monodispersity of the 2-IM profile: loss of monodispersity

## CO/C1=C\C(C)=C\[C@@H](C)[C@@H](O)[C@@H](C)C/C(C)=C/C=C/[C@H](OC)[C@@H]([C@@H](C)[C@@H](O)[C@H](C)[C@@]2(O)C[C@@H](O)[C@H](C)[C@@H](C(C)C)O2)OC1=O [bafilomycin Al]
Lysosomes in HDF cells [1]
  high Cl-, high acidity lysosome population (2-IM profile): lost

B1: rhASM: Recombinant human acid sphingomyelinase, enzyme replacement therapy for NP-A/B (protein, UniProt P17405 47-631, looked up)
Sphingomyelin …: LALSDSRVLWAPAEAHPLSPQGHPARLHRIVPRLRDVFGWGNLTCPICKGLFTAINLGLKKEPNVARVGSVAIKLCNLLKIAPPAVCQSIVHLFEDDMVEVWRRSVLSPSEACGLLLGSTCGHWDIFSSWNISLPTVPKPPPKPPSPPAPGAPVSRILFLTDLHWDHDYLEGTDPDCADPLCCRRGSGLPPASRPGAGYWGEYSKCDLPLRTLESLLSGLGPAGPFDMVYWTGDIPAHDVWHQTRQDQLRALTTVTALVRKFLGPVPVYPAVGNHESTPVNSFPPPFIEGNHSSRWLYEAMAKAWEPWLPAEALRTLRIGGFYALSPYPGLRLISLNMNFCSRENFWLLINSTDPAGQLQWLVGELQAAEDRGDKVHIIGHIPPGHCLKSWSWNYYRIVARYENTLAAQFFGHTHVDEFEVFYDEETLSRPLAVAFLAPSATTYIGLNPGYRVYQIDGNYSGSSHVVLDHETYILNLTQANIPGAIPHWQLLYRARETYGLPNTLPTAWHNLVYRMRGDMQLFQTFWFLYHKGHPPSEPCGTPCRLATLCAQLSARADSPALCRHLMPDGSLPEAQSLWPRPLFC
[4]
  high chloride, high acidity lysosome population (2-IM profile): reemergence
